# Bridge positions count the residues as written; N and C are the ends. Square brackets hold non-standard residues; d marks the D form. Peptide text beside a SMILES is read from it. R8 = C=CCCCCCC[C@@](C)(N)C(=O)O; S5 = C=CCCC[C@](C)(N)C(=O)O; Nle = CCCC[C@H](N)C(=O)O
# Legend:
# HRE-bla ME-180 cells [1] = experiment: Cell proliferation assay (viability, MTT, 1% FBS); format: cell-based, human
# Method in brief: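 Viable cell number was measured with the CellTiter 96 (MTT) kit after compounds were applied for a 16 h normoxic (21% O2) pretreatment, followed by further normoxic or hypoxic (1% O2) culture. Cells: 2×10^4 ME-180 per well, Opti-MEM + 1% FBS, 0.5% DMSO vehicle.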
# [2] = target: T1, flag-tagged HIF1α (AA 786-826) / His6-tagged p300 (AA 323-423) complex (Homo sapiens, UniProt Q09472); experiment: HIF1α p300 displacement assay (TR FRET, +CHAPS); format: binding; conditions: read-out: IC50 (nM) (HIF1α_p300 Displacement + CHAPS)
# T1 construct: His6-tagged p300 (AA 323-423); made in house; host or cells: E. coli (pETDuet vector)
# Method in brief: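 In this TR-FRET displacement format, peptides compete HIF1α C-terminal transactivation domain off p300-CH. They were preincubated 1 h at room temperature with 300 nM complex in HEPES pH 7.4/NaCl buffer with 7.5 mM CHAPS and 1 mM DTT. Anti-His-D2 (4 nM) and anti-Flag-K (0.5 μM) followed for 2 h, and a one-site fit of the fluorescence ratio gave IC50.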
# HRE-bla ME-180 cells [3] = experiment: Reporter gene assay (HRE-bla ME-180 HIF reporter, GeneBLAzer); format: cell-based, human; conditions: for EC50: 24 hour normoxia
# Method in brief: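 A FRET β-lactamase readout of HIF transcription was used. After compound treatment in 0.3% DMSO/media under normoxic conditions, 20 μl of 6× LiveBLAzer-FRET B/G (CCF4-AM) substrate was added. Plates sat 3 hr at room temperature in the dark and were read at 409 Ex/460Em and 409Ex/530Em on a Synergy 2. Inhibition was compared against DMSO vehicle controls, with chetomin as positive control.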
Structure (SMILES),Viability 1% FBS AVG (MTT V3-24 hr Normoxia) (μM) (HRE-bla ME-180 cells [1]),IC50 [2],18 h Avg % max inhibition at top conc (HIF Rptr-24 hrs normoxia) (μM) (HRE-bla ME-180 cells [3]),EC50 (HRE-bla ME-180 cells [3])
CC[C@H](C)[C@H](NC(=O)[C@H](CCCNC(=N)N)NC(=O)[C@H](CC(=O)O)NC(=O)[C@H](CC(C)C)NC(=O)[C@H](C)NC(=O)[C@H](CCSC)NC(=O)[C@H](CCC(=O)O)NC(=O)[C@@H](NC(=O)[C@@H](NC(=O)[C@H](CC(C)C)NC(=O)[C@]1(C)CCCC=CCCC[C@](C)(NC(=O)[C@H](CCC(=O)O)NC(=O)[C@H](CC(=O)O)NC(=O)[C@@H](NC(=O)[C@H](Cc2ccccc2)NC(C)=O)[C@@H](C)CC)C(=O)N[C@@H](C(C)C)C(=O)N[C@@H](CC(C)C)C(=O)N[C@@H](CCSC)C(=O)N1)C(C)C)[C@@H](C)CC)C(N)=O [SP-108] (Ac-FIDE[S5]VLM[S5]LVIEMALDRI-NH2; staple 5-9),++++ (≥30: ++++),≤ 200 nM,++ (≤10 but <25: ++),> 30 µM
CC[C@H](C)[C@H](NC(=O)[C@H](Cc1ccccc1)NC(C)=O)C(=O)N[C@@H](CC(=O)O)C(=O)N[C@@H](CCC(=O)O)C(=O)N[C@@H](CCC(=O)O)C(=O)N[C@H](C(=O)N[C@@H](CC(C)C)C(=O)N[C@@H](CCSC)C(=O)N[C@@]1(C)CCCC=CCCC[C@@](C)(C(=O)N[C@@H](CCSC)C(=O)N[C@@H](C)C(=O)N[C@@H](CC(C)C)C(=O)N[C@@H](CC(=O)O)C(=O)N[C@@H](CCCNC(=N)N)C(N)=O)NC(=O)[C@H]([C@@H](C)CC)NC(=O)[C@H](C(C)C)NC(=O)[C@H](CC(C)C)NC1=O)C(C)C [SP-281] (Ac-FIDEEVLM[S5]LVI[S5]MALDR-NH2; staple 9-13),++++ (≥30: ++++),400 to 700 nM,++++ (≥50: ++++),5 to 15 µM
CC[C@H](C)[C@H](NC(=O)[C@H](Cc1ccccc1)NC(C)=O)C(=O)N[C@@H](CC(=O)O)C(=O)N[C@@H](CCC(=O)O)C(=O)N[C@@]1(C)CCCC=CCCC[C@@](C)(C(=O)N[C@@H](CC(C)C)C(=O)N[C@H](C(=O)N[C@H](C(=O)N[C@@H](CCC(=O)O)C(=O)N[C@@H](CCSC)C(=O)N[C@@H](C)C(=O)N[C@@H](C)C(N)=O)[C@@H](C)CC)C(C)C)NC(=O)[C@H](CCSC)NC(=O)[C@H](CC(C)C)NC(=O)[C@H](C(C)C)NC1=O [SP-116] (Ac-FIDE[S5]VLM[S5]LVIEMAA-NH2; staple 5-9),++++ (≥30: ++++),> 700 nM,+++ (≤25 but <50: +++),> 30 µM
CCCC[C@H](NC(=O)[C@H](Cc1ccccc1)NC(=O)[C@@H](NC(=O)[C@H](C)NC(=O)[C@H](CCC(N)=O)NC(=O)[C@H](CC(=O)O)NC(=O)[C@@H](NC(=O)[C@H](Cc1ccccc1)NC(C)=O)[C@@H](C)CC)C(C)C)C(=O)N[C@@]1(C)CCCC=CCCC[C@@](C)(C(=O)N[C@@H](CO)C(=O)N[C@@H](C)C(=O)N[C@@H](CC(C)C)C(=O)N[C@@H](CC(C)C)C(N)=O)NC(=O)[C@H]([C@@H](C)CC)NC(=O)[C@H](C(C)C)NC(=O)[C@H](CC(C)C)NC1=O [SP-257] (Ac-FIDQAVF[Nle][S5]LVI[S5]SALL-NH2; staple 9-13),++ (≤5 but <15: ++),> 700 nM,++++ (≥50: ++++),5 to 15 µM
CC[C@H](C)[C@H](NC(=O)[C@H](Cc1ccccc1)NC(C)=O)C(=O)N[C@@H](CC(=O)O)C(=O)N[C@@H](CCC(=O)O)C(=O)N[C@@]1(C)CCCC=CCCC[C@@](C)(C(=O)N[C@@H](CC(C)C)C(=O)N[C@H](C(=O)N[C@H](C(=O)N[C@@H](CCC(=O)O)C(=O)N[C@@H](CCSC)C(=O)NCC(=O)N[C@@H](CC(C)C)C(=O)N[C@@H](CC(=O)O)C(=O)N[C@@H](CCCNC(=N)N)C(=O)N[C@H](C(=O)N[C@@H](CCCCN)C(=O)N[C@@H](CCC(=O)O)C(=O)N[C@@H](CC(C)C)C(=O)N2CCC[C@H]2C(=O)N[C@@H](CCC(=O)O)C(=O)N[C@@H](CC(C)C)C(=O)N[C@@H](Cc2c[nH]c3ccccc23)C(=O)N[C@@H](CC(C)C)C(N)=O)[C@@H](C)CC)[C@@H](C)CC)C(C)C)NC(=O)[C@H](CCSC)NC(=O)[C@H](CC(C)C)NC(=O)[C@H](C(C)C)NC1=O [SP-104] (Ac-FIDE[S5]VLM[S5]LVIEMGLDRIKELPELWL-NH2; staple 5-9),++++ (≥30: ++++),200 to 400 nM,++++ (≥50: ++++),5 to 15 µM
CCCC[C@H](NC(=O)[C@H](Cc1ccccc1)NC(=O)[C@@H](NC(=O)[C@H](C)NC(=O)[C@H](CCC(N)=O)NC(=O)[C@H](CC(=O)O)NC(=O)[C@@H](NC(=O)[C@H](Cc1ccccc1)NC(C)=O)[C@@H](C)CC)C(C)C)C(=O)N[C@@]1(C)CCCC=CCCC[C@@](C)(C(=O)N[C@@H](CCCC)C(=O)N[C@@H](C)C(=O)N[C@@H](CC(C)C)C(=O)N[C@@H](CC(C)C)C(N)=O)NC(=O)[C@H]([C@@H](C)CC)NC(=O)[C@H](C(C)C)NC(=O)[C@H](CC(N)=O)NC1=O [SP-251] (Ac-FIDQAVF[Nle][S5]NVI[S5][Nle]ALL-NH2; staple 9-13),+ (<5: +),> 700 nM,++++ (≥50: ++++),≤ 5 µM
CC[C@H](C)[C@H](NC(=O)[C@H](Cc1ccccc1)NC(C)=O)C(=O)N[C@@H](CC(=O)O)C(=O)N[C@@H](CCC(=O)O)C(=O)N[C@]1(C)CCCCCCC=CCCC[C@@](C)(C(=O)N[C@@H](CCC(=O)O)C(=O)N[C@@H](CCSC)C(=O)N[C@@H](C)C(=O)N[C@@H](CC(C)C)C(N)=O)NC(=O)[C@H](C(C)C)NC(=O)[C@H](CC(C)C)NC(=O)[C@H](CO)NC(=O)[C@H](CCSC)NC(=O)[C@H](CC(C)C)NC(=O)[C@H](C(C)C)NC1=O [SP-177] (Ac-FIDE[R8]VLMSLV[S5]EMAL-NH2; staple 5-12),+++ (≤15 but <30: +++),400 to 700 nM,++++ (≥50: ++++),5 to 15 µM
CC[C@H](C)[C@H](NC(=O)[C@H](Cc1ccccc1)NC(C)=O)C(=O)N[C@@H](CC(=O)O)C(=O)N[C@@H](CCC(=O)O)C(=O)N[C@@]1(C)CCCC=CCCC[C@@](C)(C(=O)N[C@@H](CC(C)C)C(=O)N[C@H](C(=O)N[C@H](C(=O)N[C@@H](CCC(=O)O)C(=O)N[C@@H](CCSC)C(=O)N[C@@H](C)C(=O)N[C@@H](C)C(=O)N[C@@H](C)C(N)=O)[C@@H](C)CC)C(C)C)NC(=O)[C@H](CCSC)NC(=O)[C@H](CC(C)C)NC(=O)[C@H](C(C)C)NC1=O [SP-117] (Ac-FIDE[S5]VLM[S5]LVIEMAAA-NH2; staple 5-9),++++ (≥30: ++++),> 700 nM,+++ (≤25 but <50: +++),> 30 µM
CCCC[C@@H]1NC(=O)[C@H](CC(C)C)NC(=O)[C@](C)(NC(=O)[C@H](CCC(=O)O)NC(=O)[C@H](CCC(=O)O)NC(=O)[C@H](CC(=O)O)NC(=O)[C@@H](NC(=O)[C@H](Cc2ccccc2)NC(C)=O)[C@@H](C)CC)CCCCCCC=CCCC[C@@](C)(C(=O)N[C@@H](CCCC)C(=O)N[C@@H](C)C(=O)N[C@@H](CC(C)C)C(N)=O)NC(=O)[C@H]([C@@H](C)CC)NC(=O)[C@H](C(C)C)NC(=O)[C@H](CC(C)C)NC(=O)[C@H](CO)NC1=O [SP-199] (Ac-FIDEE[R8]L[Nle]SLVI[S5][Nle]AL-NH2; staple 6-13),++++ (≥30: ++++),200 to 400 nM,+ (<10: +),> 30 µM
CCCC[C@H](NC(=O)[C@]1(C)CCCC=CCCCCCC[C@@](C)(NC(=O)[C@H](CCC(=O)O)NC(=O)[C@H](CCC(=O)O)NC(=O)[C@H](CC(=O)O)NC(=O)[C@@H](NC(=O)[C@H](CC(N)=O)NC(=O)[C@@H](NC(=O)[C@H](CCC(N)=O)NC(=O)[C@H](CC(=O)O)NC(=O)[C@H](CC(C)C)NC(=O)[C@H](C)NC(=O)[C@H](CCCNC(=N)N)NC(=O)[C@H](CC(C)C)NC(=O)[C@H](CC(C)C)NC(=O)[C@H](CCC(=O)O)NC(=O)[C@H](CCC(=O)O)NC(=O)CNC(=O)[C@H](CCC(N)=O)NC(=O)[C@H](CC(C)C)NC(=O)[C@H](CC(C)C)NC(C)=O)C(C)C)[C@@H](C)CC)C(=O)N[C@@H](CC(C)C)C(=O)N[C@@H](CCCC)C(=O)N[C@@H](CO)C(=O)N[C@@H](CC(C)C)C(=O)N[C@@H](C(C)C)C(=O)N[C@@H]([C@@H](C)CC)C(=O)N1)C(N)=O [SP-337] (Ac-LLQGEELLRALDQVNIDEE[R8]L[Nle]SLVI[S5][Nle]-NH2; staple 20-27),++++ (≥30: ++++),400 to 700 nM,+ (<10: +),> 30 µM
